Values joined by “and” are separate entries in the source; they are usually repeats but may differ in a detail not shown here. Identical values can stand only once. Inconclusive results and toxic doses are left out. No stated cut-off is given here; in the data, active means T/C of 150% or more; inactive means T/C below 125%.
Test system: L1210 leukemia ip in BDF1 mice, survival T/C
Experiment: NCI In Vivo Anticancer Drug Screen. Data for tumor model L1210 Leukemia (intraperitoneal) in B6D2F1 (BDF1) mice
Details: endpoint: mean survival time, higher = longer survival
In short: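 In this screen, tumor-bearing mice given compound are compared to those given vehicle, and their survival values are reported as a treated-to-control quotient.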

[1] = dose: 100.0 mg/kg/injection, schedule: Q01DX001 (ip), vehicle: saline
[2] = dose: 200.0 mg/kg/injection, schedule: Q01DX001 (ip), vehicle: saline
[3] = dose: 400.0 mg/kg/injection, schedule: Q01DX001 (ip), vehicle: saline
[4] = dose: 25.0 mg/kg/injection, schedule: Q04DX003 (ip), vehicle: saline
[5] = dose: 50.0 mg/kg/injection, schedule: Q04DX003 (ip), vehicle: saline
[6] = dose: 12.5 mg/kg/injection, schedule: Q04DX003 (ip), vehicle: saline
[7] = dose: 100.0 mg/kg/injection, schedule: Q01DX009 (ip), vehicle: saline with Tween-80
[8] = dose: 200.0 mg/kg/injection, schedule: Q01DX009 (ip), vehicle: saline with Tween-80

Measured: T/C

CS(=O)(=O)Oc1c(Cl)cc(Cl)c2ccccc12
inactive: [1] 98 % of control | [2] 92 % of control | [3] 101 % of control

Cc1ccccc1NC1=C(Cl)C(=O)c2ccccc2C1=O
inactive: [4] 93 % of control | [5] 93 % of control | [1] 93 % of control

O=[N+]([O-])c1ccc(Oc2cccc(C(F)(F)F)c2)nc1
inactive: dose: 100.0 mg/kg/injection, schedule: Q01DX009 (ip), vehicle: Klucel (hydroxypropylcellulose) (HPC) 101 % of control | dose: 100.0 mg/kg/injection, schedule: Q04DX003 (ip), vehicle: Klucel (hydroxypropylcellulose) (HPC) 101 % of control | dose: 200.0 mg/kg/injection, schedule: Q01DX009 (ip), vehicle: Klucel (hydroxypropylcellulose) (HPC) 103 % of control | dose: 200.0 mg/kg/injection, schedule: Q04DX003 (ip), vehicle: Klucel (hydroxypropylcellulose) (HPC) 95 % of control | dose: 400.0 mg/kg/injection, schedule: Q01DX009 (ip), vehicle: Klucel (hydroxypropylcellulose) (HPC) 107 % of control | dose: 400.0 mg/kg/injection, schedule: Q04DX003 (ip), vehicle: Klucel (hydroxypropylcellulose) (HPC) 101 % of control

CN1CCN(CCNc2ccc(CO)c3sc4ccccc4c(=O)c23)CC1
inactive: dose: 31.25 mg/kg/injection, schedule: Q01DX009 (ip), vehicle: Klucel (hydroxypropylcellulose) (HPC) 100 % of control | dose: 62.5 mg/kg/injection, schedule: Q01DX009 (ip), vehicle: Klucel (hydroxypropylcellulose) (HPC) 97 % of control | dose: 125.0 mg/kg/injection, schedule: Q01DX009 (ip), vehicle: Klucel (hydroxypropylcellulose) (HPC) 105 % of control

Cc1ccc(N2CCNCC2)cc1
inactive: dose: 6.25 mg/kg/injection, schedule: Q04DX003 (ip), vehicle: saline 91 % of control | [6] 93 % of control | [4] 103 % of control

O=NN1CCN(c2ccccc2)C1=O
inactive: dose: 18.0 mg/kg/injection, schedule: Q01DX001 (ip), vehicle: carboxymethylcellulose (CMC) 94 % of control | dose: 37.0 mg/kg/injection, schedule: Q01DX001 (ip), vehicle: carboxymethylcellulose (CMC) 96 % of control | dose: 75.0 mg/kg/injection, schedule: Q01DX001 (ip), vehicle: carboxymethylcellulose (CMC) 102 % of control | dose: 100.0 mg/kg/injection, schedule: Q01DX001 (ip), vehicle: carboxymethylcellulose (CMC) 98 % of control | dose: 150.0 mg/kg/injection, schedule: Q01DX001 (ip), vehicle: carboxymethylcellulose (CMC) 98 % of control | dose: 200.0 mg/kg/injection, schedule: Q01DX001 (ip), vehicle: carboxymethylcellulose (CMC) 104 % of control | dose: 250.0 mg/kg/injection, schedule: Q01DX001 (ip), vehicle: carboxymethylcellulose (CMC) 96 % of control | dose: 300.0 mg/kg/injection, schedule: Q01DX001 (ip), vehicle: carboxymethylcellulose (CMC) 105 % of control | dose: 400.0 mg/kg/injection, schedule: Q01DX001 (ip), vehicle: carboxymethylcellulose (CMC) 98 % of control | dose: 500.0 mg/kg/injection, schedule: Q01DX001 (ip), vehicle: carboxymethylcellulose (CMC) 106 % of control | dose: 600.0 mg/kg/injection, schedule: Q01DX001 (ip), vehicle: carboxymethylcellulose (CMC) 91 % of control | dose: 800.0 mg/kg/injection, schedule: Q01DX001 (ip), vehicle: carboxymethylcellulose (CMC) 96 % of control

CCC[CH2][Sn]([CH2]CCC)([CH2]CCC)[S]C(=S)NCCNC(=S)[S][Sn]([CH2]CCC)([CH2]CCC)[CH2]CCC
inactive: dose: 0.5 mg/kg/injection, schedule: Q01DX015 (ip), vehicle: carboxymethylcellulose (CMC) 101 % of control | dose: 1.0 mg/kg/injection, schedule: Q01DX015 (ip), vehicle: carboxymethylcellulose (CMC) 103 % of control | dose: 2.5 mg/kg/injection, schedule: Q01DX001 (ip), vehicle: saline 108 % of control | dose: 2.5 mg/kg/injection, schedule: Q01DX015 (ip), vehicle: carboxymethylcellulose (CMC) 110 % of control | dose: 5.0 mg/kg/injection, schedule: Q01DX001 (ip), vehicle: saline 108 % of control | dose: 5.0 mg/kg/injection, schedule: Q01DX015 (ip), vehicle: carboxymethylcellulose (CMC) 103 % of control | dose: 10.0 mg/kg/injection, schedule: Q01DX001 (ip), vehicle: saline 101 % of control | dose: 10.0 mg/kg/injection, schedule: Q01DX015 (ip), vehicle: carboxymethylcellulose (CMC) 113 % of control | dose: 20.0 mg/kg/injection, schedule: Q01DX015 (ip), vehicle: carboxymethylcellulose (CMC) 101 % of control | dose: 30.0 micrograms/kg/injection, schedule: Q01DX015 (ip), vehicle: carboxymethylcellulose (CMC) 106 % of control | dose: 60.0 micrograms/kg/injection, schedule: Q01DX015 (ip), vehicle: carboxymethylcellulose (CMC) 110 % of control | dose: 120.0 micrograms/kg/injection, schedule: Q01DX015 (ip), vehicle: carboxymethylcellulose (CMC) 102 % of control | dose: 240.0 micrograms/kg/injection, schedule: Q01DX015 (ip), vehicle: carboxymethylcellulose (CMC) 102 % of control

OCC(O)C(O)C(O)C(O)C(c1ccccc1)c1ccccc1 (stereo not given)
inactive: dose: 50.0 mg/kg/injection, schedule: Q01DX001 (ip), vehicle: saline 107 % of control | [1] 103 % of control | [2] 101 % of control | [3] 101 % of control

CC(=O)OC1CCC2(C)C(=CCC3C2CCC2(C)c4c(c(-c5ccccc5)nn4-c4ccccc4)CC32)C1 (stereo not given)
inactive: dose: 100.0 mg/kg/injection, schedule: Q04DX002 (ip), vehicle: Klucel (hydroxypropylcellulose) (HPC) 98 % of control | dose: 200.0 mg/kg/injection, schedule: Q04DX002 (ip), vehicle: Klucel (hydroxypropylcellulose) (HPC) 90 % of control | dose: 400.0 mg/kg/injection, schedule: Q04DX002 (ip), vehicle: Klucel (hydroxypropylcellulose) (HPC) 95 % of control

c1cc2cc(c1)CCc1cccc(c1)CC2
inactive: [1] 100 % of control | [2] 106 % of control | [3] 94 % of control

O=C1c2ccccc2-c2ccc(NC(=O)C(F)(F)F)cc21
inactive: dose: 100.0 mg/kg/injection, schedule: Q01DX001 (ip), vehicle: saline with Tween-80 92 % of control | dose: 200.0 mg/kg/injection, schedule: Q01DX001 (ip), vehicle: saline with Tween-80 90 % of control | dose: 400.0 mg/kg/injection, schedule: Q01DX001 (ip), vehicle: saline with Tween-80 92 % of control

CCCCCCCCCCCCNC(=O)c1cc[n+](C)cc1
inactive: [6] 103 % of control and 88 % of control and 93 % of control | [4] 99 % of control and 87 % of control and 91 % of control | [5] 93 % of control and 91 % of control and 88 % of control

CC(Cl)(/N=N/C(C)(Cl)c1cccc(Cl)c1)c1ccc(Cl)cc1 (stereo not given)
inactive: dose: 100.0 mg/kg/injection, schedule: Q04DX003 (ip), vehicle: saline with Tween-80 94 % of control

Cc1ccc2nc(-c3ccc(N)cc3)sc2c1
inactive: [7] 96 % of control | [8] 91 % of control

CCCCCCCCC/C(=N\N=C(N)N)c1ccccc1
inactive: dose: 15.0 mg/kg/injection, schedule: Q01DX Z (ip), vehicle: methylcellulose (MC) 94 % of control | dose: 30.0 mg/kg/injection, schedule: Q01DX Z (ip), vehicle: methylcellulose (MC) 96 % of control | dose: 50.0 mg/kg/injection, schedule: Q01DX Z (oral), vehicle: methylcellulose (MC) 89 % of control | dose: 60.0 mg/kg/injection, schedule: Q01DX Z (ip), vehicle: methylcellulose (MC) 90 % of control | dose: 60.0 mg/kg/injection, schedule: Q01DX Z (oral), vehicle: methylcellulose (MC) 102 % of control | dose: 120.0 mg/kg/injection, schedule: Q01DX Z (ip), vehicle: methylcellulose (MC) 108 % of control | dose: 120.0 mg/kg/injection, schedule: Q01DX Z (oral), vehicle: methylcellulose (MC) 98 % of control | dose: 240.0 mg/kg/injection, schedule: Q01DX Z (ip), vehicle: methylcellulose (MC) 96 % of control | dose: 400.0 mg/kg/injection, schedule: Q01DX Z (oral), vehicle: methylcellulose (MC) 89 % of control | dose: 480.0 mg/kg/injection, schedule: Q01DX Z (ip), vehicle: methylcellulose (MC) 113 % of control | dose: 1000.0 mg/kg/injection, schedule: Q01DX Z (ip), vehicle: methylcellulose (MC) 87 % of control | dose: 1500.0 mg/kg/injection, schedule: Q01DX Z (ip), vehicle: methylcellulose (MC) 100 % of control

O=C(Nc1ccccc1[N+](=O)[O-])c1ccccc1
inactive: [7] 111 % of control | [8] 106 % of control | dose: 400.0 mg/kg/injection, schedule: Q01DX009 (ip), vehicle: saline with Tween-80 106 % of control

NN1CCCCCC1
inactive: dose: 100.0 mg/kg/injection, schedule: Q04DX003 (ip), vehicle: saline 102 % of control | dose: 200.0 mg/kg/injection, schedule: Q04DX003 (ip), vehicle: saline 97 % of control | dose: 400.0 mg/kg/injection, schedule: Q04DX003 (ip), vehicle: saline 94 % of control
